According to PubChem BioAssay AID1259407 (Chemical Carcinogenesis Research Information System (CCRIS), 2018):
Calls of active or inactive are those of the source. The rule behind the calls is not given here.

Tested on: CCRIS mutagenicity, Ames/micronucleus/aberration tests
Test: CCRIS mutagenicity studies
[1] = Test System: AMES SALMONELLA TYPHIMURIUM, Strain/Indicator: TA98, Metabolic Activation: NONE, Method: PREINCUBATION
[2] = Test System: AMES SALMONELLA TYPHIMURIUM, Strain/Indicator: TA100, Metabolic Activation: NONE, Method: PREINCUBATION

Measured: mutagenic call

CCC[N+](=O)[O-]
inactive: Test System: AMES SALMONELLA TYPHIMURIUM, Strain/Indicator: TA98, Metabolic Activation: RAT LIVER S-9, PHENOBARBITAL AND BETA-NAPHTHOFLAVONE, Method: PREINCUBATION inactive; negative | Test System: AMES SALMONELLA TYPHIMURIUM, Strain/Indicator: TA98, Metabolic Activation: RAT, LIVER, S-9, AROCLOR, Method: PREINCUBATION inactive; negative | Test System: AMES SALMONELLA TYPHIMURIUM, Strain/Indicator: TA98, Metabolic Activation: RAT, LIVER, S-9, CLOPHEN A-50, Method: PREINCUBATION inactive; negative | Test System: AMES SALMONELLA TYPHIMURIUM, Strain/Indicator: TA98, Metabolic Activation: RAT, LIVER, S-9, KANECHLOR 500, Method: PREINCUBATION inactive; negative | Test System: AMES SALMONELLA TYPHIMURIUM, Strain/Indicator: TA100, Metabolic Activation: RAT LIVER S-9, PHENOBARBITAL AND BETA-NAPHTHOFLAVONE, Method: PREINCUBATION inactive; negative | Test System: AMES SALMONELLA TYPHIMURIUM, Strain/Indicator: TA100, Metabolic Activation: RAT, LIVER, S-9, AROCLOR, Method: PREINCUBATION inactive; negative | Test System: AMES SALMONELLA TYPHIMURIUM, Strain/Indicator: TA100, Metabolic Activation: RAT, LIVER, S-9, CLOPHEN A-50, Method: PREINCUBATION inactive; negative | Test System: AMES SALMONELLA TYPHIMURIUM, Strain/Indicator: TA100, Metabolic Activation: RAT, LIVER, S-9, KANECHLOR 500, Method: PREINCUBATION inactive; negative | Test System: AMES SALMONELLA TYPHIMURIUM, Strain/Indicator: TA102, Metabolic Activation: NONE, Method: PREINCUBATION inactive; negative | Test System: AMES SALMONELLA TYPHIMURIUM, Strain/Indicator: TA102, Metabolic Activation: RAT LIVER S-9, PHENOBARBITAL AND BETA-NAPHTHOFLAVONE, Method: PREINCUBATION inactive; negative | Test System: AMES SALMONELLA TYPHIMURIUM, Strain/Indicator: TA102, Metabolic Activation: RAT, LIVER, S-9, AROCLOR, Method: PREINCUBATION inactive; negative | Test System: AMES SALMONELLA TYPHIMURIUM, Strain/Indicator: TA104, Metabolic Activation: NONE, Method: PREINCUBATION inactive; negative | Test System: AMES SALMONELLA TYPHIMURIUM, Strain/Indicator: TA104, Metabolic Activation: RAT LIVER S-9, PHENOBARBITAL AND BETA-NAPHTHOFLAVONE, Method: PREINCUBATION inactive; negative | Test System: AMES SALMONELLA TYPHIMURIUM, Strain/Indicator: TA1535, Metabolic Activation: NONE, Method: PREINCUBATION inactive; negative | Test System: AMES SALMONELLA TYPHIMURIUM, Strain/Indicator: TA1535, Metabolic Activation: RAT LIVER S-9, PHENOBARBITAL AND BETA-NAPHTHOFLAVONE, Method: PREINCUBATION inactive; negative | Test System: AMES SALMONELLA TYPHIMURIUM, Strain/Indicator: TA1537, Metabolic Activation: NONE, Method: PREINCUBATION inactive; negative | Test System: AMES SALMONELLA TYPHIMURIUM, Strain/Indicator: TA1537, Metabolic Activation: RAT LIVER S-9, PHENOBARBITAL AND BETA-NAPHTHOFLAVONE, Method: PREINCUBATION inactive; negative | Test System: E. COLI, Strain/Indicator: WP2 UVRA (PKM101), Metabolic Activation: NONE, Method: PREINCUBATION inactive; negative | Test System: E.COLI, Strain/Indicator: WP2UVRA/PKM101, Metabolic Activation: NONE, Method: PREINCUBATION inactive; negative | Test System: E.COLI, Strain/Indicator: WP2UVRA/PKM101, Metabolic Activation: RAT LIVER S-9, PHENOBARBITAL AND BETA-NAPHTHOFLAVONE, Method: PREINCUBATION inactive; negative | Test System: E.COLI, Strain/Indicator: WP2UVRA, Metabolic Activation: NONE, Method: PREINCUBATION inactive; negative | Test System: E.COLI, Strain/Indicator: WP2UVRA, Metabolic Activation: RAT LIVER S-9, PHENOBARBITAL AND BETA-NAPHTHOFLAVONE, Method: PREINCUBATION inactive; negative | Test System: UDS RAT HEPATOCYTES, Strain/Indicator: THY INCORP, Metabolic Activation: NONE inactive; negative | Test System: UDS RODENT HEPATOCYTES, Strain/Indicator: THY INCORP (NON-S-PHASE), Metabolic Activation: NONE, Method: PREINCUBATION inactive; negative
active: Test System: CHINESE HAMSTER V-79, Strain/Indicator: V-79/6-THIOGUANINE, Metabolic Activation: NONE, Method: STANDARD PLATE active; positive

CCCCOC(N)=O
inactive: Test System: E. COLI, Strain/Indicator: WP2 UVRA, Metabolic Activation: NONE, Method: FLUCTUATION TEST inactive; negative

OC1c2ccccc2Oc2ccccc21
active: Test System: AMES SALMONELLA TYPHIMURIUM, Strain/Indicator: TA97, Metabolic Activation: NONE, Method: PREINCUBATION active; positive | Test System: AMES SALMONELLA TYPHIMURIUM, Strain/Indicator: TA97, Metabolic Activation: RAT, LIVER, S-9, PHENOBARBITAL AND 5,6-BENZOFLAVONE, Method: PREINCUBATION active; positive | [1] active; positive | Test System: AMES SALMONELLA TYPHIMURIUM, Strain/Indicator: TA98, Metabolic Activation: RAT, LIVER, S-9, PHENOBARBITAL AND 5,6-BENZOFLAVONE, Method: PREINCUBATION active; positive | Test System: AMES SALMONELLA TYPHIMURIUM, Strain/Indicator: TA2637, Metabolic Activation: NONE, Method: PREINCUBATION active; positive
inactive: [2] inactive; negative | Test System: AMES SALMONELLA TYPHIMURIUM, Strain/Indicator: TA100, Metabolic Activation: RAT, LIVER, S-9, PHENOBARBITAL AND 5,6-BENZOFLAVONE, Method: PREINCUBATION inactive; negative | Test System: AMES SALMONELLA TYPHIMURIUM, Strain/Indicator: TA2637, Metabolic Activation: RAT, LIVER, S-9, PHENOBARBITAL AND 5,6-BENZOFLAVONE, Method: PREINCUBATION inactive; negative

Nc1ccc2nc3ccccn3c2n1
active: Test System: AMES SALMONELLA TYPHIMURIUM, Strain/Indicator: TA97, Metabolic Activation: RAT, LIVER, S-9, AROCLOR 1254, Method: STANDARD PLATE active; positive | Test System: AMES SALMONELLA TYPHIMURIUM, Strain/Indicator: TA98, Metabolic Activation: MONKEY, LIVER, S-9, Method: PREINCUBATION active; positive | Test System: AMES SALMONELLA TYPHIMURIUM, Strain/Indicator: TA98, Metabolic Activation: MOUSE, LIVER, MICROSOMES, TCDD, Method: STANDARD PLATE active; positive | Test System: AMES SALMONELLA TYPHIMURIUM, Strain/Indicator: TA98, Metabolic Activation: RAT, LIVER, S-9, AROCLOR 1254, Method: PREINCUBATION active; positive | Test System: AMES SALMONELLA TYPHIMURIUM, Strain/Indicator: TA98, Metabolic Activation: RAT, LIVER, S-9, AROCLOR 1254, Method: STANDARD PLATE active; positive | Test System: AMES SALMONELLA TYPHIMURIUM, Strain/Indicator: TA100, Metabolic Activation: RAT, LIVER, S-9, AROCLOR 1254, Method: PREINCUBATION active; positive | Test System: AMES SALMONELLA TYPHIMURIUM, Strain/Indicator: TA100, Metabolic Activation: RAT, LIVER, S-9, AROCLOR 1254, Method: STANDARD PLATE active; positive | Test System: AMES SALMONELLA TYPHIMURIUM, Strain/Indicator: TA100, Metabolic Activation: RAT, LIVER, S-9, N-BENZYLIMIDAZOLE, Method: PREINCUBATION active; positive | Test System: AMES SALMONELLA TYPHIMURIUM, Strain/Indicator: YG1019, Metabolic Activation: RAT LIVER S-9, AROCLOR, Method: PREINCUBATION active; positive
inactive: Test System: AMES SALMONELLA TYPHIMURIUM, Strain/Indicator: TA97, Metabolic Activation: NONE, Method: STANDARD PLATE inactive; negative | Test System: AMES SALMONELLA TYPHIMURIUM, Strain/Indicator: TA98, Metabolic Activation: MOUSE, LIVER, MICROSOMES, Method: STANDARD PLATE inactive; negative | Test System: AMES SALMONELLA TYPHIMURIUM, Strain/Indicator: TA98, Metabolic Activation: NONE, Method: STANDARD PLATE inactive; negative | Test System: AMES SALMONELLA TYPHIMURIUM, Strain/Indicator: TA98, Metabolic Activation: RAT, LIVER, CYTOSOL, AROCLOR 1254, Method: STANDARD PLATE inactive; negative | Test System: AMES SALMONELLA TYPHIMURIUM, Strain/Indicator: TA98, Metabolic Activation: RAT, LIVER, MICROSOMES, AROCLOR 1254, Method: STANDARD PLATE inactive; negative | Test System: AMES SALMONELLA TYPHIMURIUM, Strain/Indicator: TA100, Metabolic Activation: NONE, Method: STANDARD PLATE inactive; negative

COc1cc2oc(-c3ccc(O)cc3)c(O)c(=O)c2cc1OC
inactive: [1] inactive; negative | Test System: AMES SALMONELLA TYPHIMURIUM, Strain/Indicator: TA98, Metabolic Activation: RAT LIVER S-9, SODIUM BARBITAL AND BETA-NAPHTHAFLAVONE, Method: PREINCUBATION inactive; negative | [2] inactive; negative | Test System: AMES SALMONELLA TYPHIMURIUM, Strain/Indicator: TA100, Metabolic Activation: RAT LIVER S-9, SODIUM BARBITAL AND BETA-NAPHTHAFLAVONE, Method: PREINCUBATION inactive; negative
